ChEMBL document CHEMBL4334494, “Recent advances in the targeting of human DNA ligase I as a potential new strategy for cancer treatment” (Eur J Med Chem, 2019)
Each block holds one molecule with its values, some of them ahead of it.

Columns and labels:
MDA-MB-231 [1] = assay: Antiproliferative activity against human MDA-MB-231 cells after 48 hrs by MTT assay; format: functional, cell-based; conditions: MDA-MB-231, 48 h
HepG2 = assay: Antiproliferative activity against human HepG2 cells after 48 hrs by MTT assay; format: functional, cell-based; conditions: HepG2, 48 h
DNA ligase 1 [2] = molecular target: T1, DNA ligase 1 (Homo sapiens, UniProt P18858); assay: Inhibition of human DNA ligase 1 at 50 uM using 52-mer DNA/25-mer DNA/27-mer DNA as substrate by fluorescence assay relative to control
T1 sequence (P18858 whole entry): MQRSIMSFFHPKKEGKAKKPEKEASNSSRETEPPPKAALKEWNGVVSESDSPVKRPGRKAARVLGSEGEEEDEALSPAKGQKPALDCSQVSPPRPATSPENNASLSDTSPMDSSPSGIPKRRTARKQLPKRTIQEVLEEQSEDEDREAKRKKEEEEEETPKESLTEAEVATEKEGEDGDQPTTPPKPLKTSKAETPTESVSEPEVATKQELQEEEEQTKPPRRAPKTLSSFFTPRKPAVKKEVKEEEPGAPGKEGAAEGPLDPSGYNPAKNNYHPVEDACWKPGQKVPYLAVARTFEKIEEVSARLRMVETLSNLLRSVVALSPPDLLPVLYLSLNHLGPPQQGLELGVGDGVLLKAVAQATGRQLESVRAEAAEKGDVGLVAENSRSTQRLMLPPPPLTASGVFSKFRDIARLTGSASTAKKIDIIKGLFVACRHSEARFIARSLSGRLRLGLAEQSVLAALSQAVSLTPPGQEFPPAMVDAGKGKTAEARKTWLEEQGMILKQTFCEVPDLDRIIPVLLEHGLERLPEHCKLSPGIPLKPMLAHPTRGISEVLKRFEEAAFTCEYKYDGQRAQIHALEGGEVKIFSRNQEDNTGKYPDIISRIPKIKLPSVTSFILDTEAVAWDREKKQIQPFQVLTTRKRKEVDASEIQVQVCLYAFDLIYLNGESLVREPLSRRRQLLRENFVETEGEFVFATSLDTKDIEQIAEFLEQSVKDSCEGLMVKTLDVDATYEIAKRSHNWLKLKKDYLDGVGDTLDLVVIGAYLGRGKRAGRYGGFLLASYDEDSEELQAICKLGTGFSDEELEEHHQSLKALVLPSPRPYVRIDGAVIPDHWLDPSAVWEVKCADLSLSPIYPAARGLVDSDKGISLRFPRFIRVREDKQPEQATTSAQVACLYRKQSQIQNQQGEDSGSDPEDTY

HEK293 = assay: Cytotoxicity against HEK293 cells after 48 hrs by MTT assay; format: cell-based; conditions: Homo sapiens, HEK293, 48 h
DLD-1 = assay: Antiproliferative activity against human DLD1 cells after 48 hrs by MTT assay; format: functional, cell-based; conditions: DLD-1, 48 h
[3] = Antiproliferative activity against human 46BR.1G1 cells after 48 hrs by MTT assay; format: functional, cell-based
DNA ligase 1 [4] = molecular target: T1, DNA ligase 1; assay: Inhibition of human DNA ligase 1
DNA ligase 1 [5] = molecular target: T1, DNA ligase 1; assay: Uncompetitive inhibition of human DNA ligase 1 using nicked DNA as substrate by high-throughput fluorescence energy transfer-based DNA joining assay
DNA ligase 1 [6] = molecular target: T1, DNA ligase 1; assay: Inhibition of human DNA ligase 1 at 100 uM using nicked DNA as substrate by high-throughput fluorescence energy transfer-based DNA joining assay relative to control
HCT-116 = assay: Antiproliferative activity against human HCT116 cells relative to control; format: functional
DNA ligase 1 [7] = molecular target: T1, DNA ligase 1; assay: Inhibition of human DNA ligase 1 using 52-mer DNA/25-mer DNA/27-mer DNA as substrate
DNA ligase 1 [8] = molecular target: T1, DNA ligase 1; assay: Competitive inhibition of human DNA ligase 1 using nicked DNA as substrate by high-throughput fluorescence energy transfer-based DNA joining assay
DNA ligase 4 = molecular target: T2, DNA ligase 4 (Homo sapiens, UniProt P49917); assay: Competitive inhibition of human DNA ligase 4 using nicked DNA as substrate by high-throughput fluorescence energy transfer-based DNA joining assay
T2 sequence (P49917 whole entry): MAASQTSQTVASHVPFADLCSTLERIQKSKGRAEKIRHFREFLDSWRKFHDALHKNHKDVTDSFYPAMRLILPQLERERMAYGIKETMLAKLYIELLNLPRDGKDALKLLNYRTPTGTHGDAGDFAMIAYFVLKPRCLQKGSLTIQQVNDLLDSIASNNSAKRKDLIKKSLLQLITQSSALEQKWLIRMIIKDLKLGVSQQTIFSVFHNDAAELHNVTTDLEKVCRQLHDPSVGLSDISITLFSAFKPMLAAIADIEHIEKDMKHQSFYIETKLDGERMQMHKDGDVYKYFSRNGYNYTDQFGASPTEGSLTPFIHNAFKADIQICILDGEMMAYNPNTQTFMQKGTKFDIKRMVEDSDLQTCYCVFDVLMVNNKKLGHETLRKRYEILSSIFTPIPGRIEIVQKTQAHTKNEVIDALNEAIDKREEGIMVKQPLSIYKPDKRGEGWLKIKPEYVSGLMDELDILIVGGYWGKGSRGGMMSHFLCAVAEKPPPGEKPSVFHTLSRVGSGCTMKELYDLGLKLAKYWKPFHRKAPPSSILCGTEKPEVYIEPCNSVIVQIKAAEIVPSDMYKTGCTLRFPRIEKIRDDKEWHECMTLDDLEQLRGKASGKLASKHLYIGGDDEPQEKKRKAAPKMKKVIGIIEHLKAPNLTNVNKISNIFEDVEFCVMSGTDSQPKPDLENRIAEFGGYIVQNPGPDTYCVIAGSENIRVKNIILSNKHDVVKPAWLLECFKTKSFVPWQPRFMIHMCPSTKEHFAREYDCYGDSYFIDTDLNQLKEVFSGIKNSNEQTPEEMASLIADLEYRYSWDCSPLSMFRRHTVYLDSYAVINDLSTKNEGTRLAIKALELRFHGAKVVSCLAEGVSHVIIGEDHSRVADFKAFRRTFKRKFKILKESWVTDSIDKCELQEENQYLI

DNA ligase 3 = molecular target: T3, DNA ligase 3 (Homo sapiens, UniProt P49916); assay: Competitive inhibition of human DNA ligase 3 using nicked DNA as substrate by high-throughput fluorescence energy transfer-based DNA joining assay
T3 sequence (P49916 whole entry): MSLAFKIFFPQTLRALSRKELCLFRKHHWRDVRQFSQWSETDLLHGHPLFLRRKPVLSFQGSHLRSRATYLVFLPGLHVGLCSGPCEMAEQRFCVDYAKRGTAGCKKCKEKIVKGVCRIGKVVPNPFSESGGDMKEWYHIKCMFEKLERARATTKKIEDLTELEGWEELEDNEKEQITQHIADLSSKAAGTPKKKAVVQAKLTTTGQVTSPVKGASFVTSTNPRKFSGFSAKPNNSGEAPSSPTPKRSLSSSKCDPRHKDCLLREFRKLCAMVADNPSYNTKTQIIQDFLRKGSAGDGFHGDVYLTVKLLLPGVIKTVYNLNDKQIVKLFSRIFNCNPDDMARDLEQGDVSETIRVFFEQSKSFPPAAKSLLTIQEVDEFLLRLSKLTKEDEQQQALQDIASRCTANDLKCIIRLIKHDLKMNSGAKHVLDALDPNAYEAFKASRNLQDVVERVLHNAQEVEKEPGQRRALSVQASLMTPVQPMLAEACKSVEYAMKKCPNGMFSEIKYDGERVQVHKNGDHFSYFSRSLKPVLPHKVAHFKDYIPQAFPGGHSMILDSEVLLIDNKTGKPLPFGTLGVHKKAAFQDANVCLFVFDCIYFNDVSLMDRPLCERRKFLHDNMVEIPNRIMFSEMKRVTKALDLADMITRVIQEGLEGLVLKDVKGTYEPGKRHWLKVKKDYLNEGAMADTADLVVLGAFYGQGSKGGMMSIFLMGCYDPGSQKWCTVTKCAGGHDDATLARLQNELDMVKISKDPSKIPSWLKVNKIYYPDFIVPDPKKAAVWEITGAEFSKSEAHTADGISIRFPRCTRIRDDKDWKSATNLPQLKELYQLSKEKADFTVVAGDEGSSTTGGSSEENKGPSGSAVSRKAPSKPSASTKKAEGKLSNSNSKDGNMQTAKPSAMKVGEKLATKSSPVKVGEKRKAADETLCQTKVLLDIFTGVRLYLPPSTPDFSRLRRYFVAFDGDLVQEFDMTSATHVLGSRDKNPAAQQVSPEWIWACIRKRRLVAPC

4T1 = assay: Antiproliferative activity against mouse 4T1 cells after 48 hrs by MTT assay; format: functional, cell-based; conditions: 4T1, 48 h
DNA ligase 1 [9] = molecular target: T1, DNA ligase 1; assay: Inhibition of human DNA ligase 1 using nicked DNA as substrate after 30 mins relative to control
DNA ligase 1 [10] = molecular target: T1, DNA ligase 1; assay: Inhibition of human DNA ligase 1 at 25 uM using nicked DNA as substrate after 30 mins relative to control
MDA-MB-231 [11] = assay: Antiproliferative activity against human MDA-MB-231 cells at 10 uM after 48 hrs by MTT assay relative to control; format: functional; conditions: MDA-MB-231, 48 h

- IC50 (DNA ligase 1 [4]): 1 µM
SMILES: N[C@H](CO)Cc1cc(I)c(Oc2ccc(O)cc2)c(I)c1

- IC50 (DNA ligase 1 [5]): 12 µM
- inhibition (DNA ligase 1 [6]): 59.8%
SMILES: O=c1[nH]ncc(N/N=C/c2ccc(O)c([N+](=O)[O-])c2)c1Cl
- Activity (HCT-116): 70%

- inhibition (DNA ligase 1 [6]): 68.8%
- IC50 (DNA ligase 1 [8]): 5 µM
- IC50 (DNA ligase 4): 5 µM
- IC50 (DNA ligase 3): 9 µM
SMILES: Nc1nc(S)nc(O)c1/N=C/c1ccccc1
- Activity (HCT-116): 70%

- inhibition (DNA ligase 1 [6]): 78.3%
- IC50 (DNA ligase 1 [8]): 10 µM
- IC50 (DNA ligase 3): 10 µM
SMILES: Cc1c(Br)cc(NCC(=O)N/N=C/c2cc([N+](=O)[O-])ccc2O)cc1Br
- Activity (HCT-116): 70%

- IC50 (DNA ligase 1 [7]): 15.8 µM
SMILES: O=C1c2cc(Cl)ccc2NC(c2ccc(Cl)c(Cl)c2)c2cccn21 (stereo unspecified)

Second part, the molecule before the results:

SMILES: O=[N+]([O-])c1ccc(N/N=C(/c2ccc(O)cc2)c2cccc3ccccc23)c([N+](=O)[O-])c1
- IC50 (MDA-MB-231 [1]): 7.02 µM
- IC50 (HepG2): 6.93 µM
- inhibition (DNA ligase 1 [2]): 93.1%
- IC50 (HEK293): 12.6 µM
- IC50 (DLD-1): 6.78 µM
- IC50 [3]: > 25 µM

SMILES: O=C1c2cc(Cl)ccc2NC(c2ccc(Br)cc2)c2cccn21 (stereo unspecified)
- IC50 (DNA ligase 1 [7]): 23.1 µM

SMILES: COc1cc(/C=C/c2cc(=O)oc3c2ccc2ccccc23)cc(OC)c1
- IC50 (4T1): 11.6 µM
- IC50 (MDA-MB-231 [1]): 12.8 µM
- inhibition (DNA ligase 1 [9]): 99.3%
- inhibition (DNA ligase 1 [10]): < 50%
- inhibition at 10 µM (MDA-MB-231 [11]): > 50%
